Earlier results in US12409146B2, “Solid lipid nanoparticle for intracellular release of active substances and method for production the same” (LEAD BIOTHERAPEUTICS LTD, priority 2017, dated 2025).
In brackets after ≈: the same amount, converted by molar mass.

**Q.** With `C[C@@H]1C[C@H]2[C@@H]3CCC4=CC(=O)C=C[C@]4(C)[C@@]3(Cl)[C@@H](O)C[C@]2(C)[C@@]1(OC(=O)c1ccco1)C(=O)CCl` [Mometasone furoate] as the compound, how does the water solubility read?
**A.** The water solubility was 5.23 µg/mL (≈ 10 µM).
